Test results: patent US8258186B2, “Pharmaceutical for oral delivery comprising MGBG” (Pathologica, LLC, priority 2009, dated 2012)

Key:
[1] = Mouse single-dose pharmacokinetics; assay type: in vivo, DBA/1 mice; settings: for AUC / Cmax: plasma
Method: Twenty-four male DBA/1 mice weighing 19.5-24.7 g and aged 7-9 weeks administered the test article, MGBG, as either a single bolus intravenous dose via a lateral tail vein of 1 mg/kg (Group 1, n=12) or as a single oral gavage dose of 10 mg/kg (Group 2, n=12). Each dose group consisted of 4 cohorts of 3 animals each. Group 1 was sampled at 5, 15, and 30 minutes after dosing; and 1, 2, 4, 8, and 24 hours after dosing. Group 2 was sampled at 1, 2, 4, 8, 12, 24, and 36 hours after dosing. Starting with the first time point, a new cohort was sampled at each successive time point up to the 1-hour (Group 1) or 12-hour (Group 2) time point. The order of sampling among the cohorts was repeated for the subsequent time points (some cohorts may have been bled only once). The second bleed for each cohort was terminal. Animals were sacrificed via CO2 inhalation anaesthesia after final blood collection.
The samples were centrifuged under refrigerated conditions following completion of sample collection at each interval. The resulting plasma was separated and stored frozen at approximately −70° C. until analysis. Analysis was performed by LC/MS/MS. Pharmacokinetic analyses were performed on the mean MGBG plasma concentration versus time data using the non-compartmental approach (linear trapezoidal rule for AUC calculations). The WinNonlin sparse sampling tool was used for PK calculations.

[2] = Multi-dose rat pharmacokinetic and tolerability study; assay type: in vivo, Sprague Dawley rats; settings: for AUC / CL/F / fold increase in mean AUCall compared to Study Day 1 / AUC(0-t) / Cmax / Tmax: male, Sprague Dawley; for fold increase in mean AUCall compared to Study Day 1: 7 days
Method: The purpose of this study was to determine the pharmacokinetic (PK) properties and tolerability of MGBG in rats. Additionally, recovery from any toxic effects was assessed after a seven day non-dosing period.
Three per group of male Sprague Dawley (CD® MS, Charles River) aged 7-9 weeks and weighing 222.7-252.0 g were administered by oral (PO) gavage, twice daily, at 10, 20, or 30 mg/kg/dose (20, 40, or 60 mg/kg/day) for seven consecutive days. A washout period of seven days followed. Collection of approximately 200 μL of whole blood was collected from the tail vein of all animals in Groups 5, 6, and 7 were bled at six (Day 1), seven (Day 7), or one (Days 9 through 15) time point(s), respectively. Whole blood samples were collected in a lithium heparin microtainer and processed to plasma by centrifugation. Plasma was frozen at −70° C. Pharmacokinetic analyses were performed on the individual animal plasma concentration versus time data for MGBG using WinNonlin (linear trapezoidal rule for AUC calculations). Nominal dose values and sampling times were used for calculations. For Study Day 7, the reported values for MGBG concentrations at time zero were used in the calculations of AUC. Study Day 1 disposition parameters were not reported due to insufficient terminal phase data to adequately characterize these parameters.
On Study Day 7, evidence of dose-dependent dispositions for Cl/Fobs and elimination half-life were observed as mean parameter values for Cl/Fobs and elimination half-life increased and decreased, respectively, with increasing dose levels.
Based on the findings of this exploratory study, the no observable adverse effect level (NOAEL) for MGBG administered by PO gavage twice daily for seven consecutive days to male Sprague Dawley rats is 30 mg/kg/dose (60 mg/kg/day).

[3] = male, DBA/1, plasma, single bolus IV 1 mg/kg, mean
[4] = male, DBA/1, plasma, single oral gavage 10 mg/kg, mean
[5] = male, DBA/1, single bolus IV 1 mg/kg, mean
[6] = male, DBA/1, single oral gavage 10 mg/kg, mean

## CC(/C=N/NC(=N)N)=N\NC(=N)N [MGBG, 1,1′[methylethanediylidene]dinitrilodiguanidine]
[1]; following IV and PO administration
  systemic plasma MGBG exposure: observed at all collected plasma time points
[1]; following dosing
  clinical findings: Abnormal clinical findings were not noted
[1]; male, DBA/1, plasma, oral 10 mg/kg vs IV 1 mg/kg
  bioavailability: 44.3%
[1]; [3]
  Tmax: 0.083 h
  half-life: 13 h
[1]; [4]
  Tmax: 1 h
  half-life: 11.8 h
[1]; [5]
  AUC: 336 ng·h/mL
  Cmax: 181 ng/mL
[1]; [6]
  AUC: 1420 ng·h/mL
  Cmax: 106 ng/mL
[1]; single bolus IV 1 mg/kg, mean
  Clobs: 49.6 mL/min/kg
  VSSobs: 38.3 L/kg
[1]; single oral gavage 10 mg/kg, mean
  Clobs: 6.68 mL/min/kg
[2]; in vivo
  increase of systemic exposure (Cmax and AUCall) with increasing dose: slightly less than dose-proportional
[2]; in vivo, 60 mg/kg/day
  hematology parameters versus control group: lower reticulocyte count and percentage
  serum chemistry parameters versus control group: osmolality and electrolyte changes consistent with slight dehydration
[2]; in vivo, male Sprague Dawley rats, PO gavage twice daily, seven consecutive days, read-out: no observable adverse effect level (NOAEL)
  NOAEL at 7 days: 60 mg/kg/day
[2]; in vivo, po
  systemic exposure, plasma Day 1 and Day 7: systemic exposure to the test article at all time points
[2]; in vivo, po, 20 mg/kg/day
  AUC: 7930 ng·h/mL
  CL/F: 24.3 mL/min/kg
  fold increase in mean AUCall compared to Study Day 1: 3.77 fold
  Cmax: 124 ng/mL
[2]; in vivo, po, 20 mg/kg/day, AUC0-12
  AUC(0-t): 773 ng·h/mL
[2]; in vivo, po, 20 mg/kg/day, AUC0-24
  AUC(0-t): 1750 ng·h/mL
[2]; in vivo, po, 20 mg/kg/day, Tmax
  Tmax: 10 h
[2]; in vivo, po, 40 mg/kg/day
  AUC: 13700 ng·h/mL
  CL/F: 28.2 mL/min/kg
  fold increase in mean AUCall compared to Study Day 1: 4.03 fold
  Cmax: 175 ng/mL
[2]; in vivo, po, 40 mg/kg/day, AUC0-12
  AUC(0-t): 1380 ng·h/mL
[2]; in vivo, po, 40 mg/kg/day, AUC0-24
  AUC(0-t): 2980 ng·h/mL
[2]; in vivo, po, 40 mg/kg/day, Tmax
  Tmax: 7.33 h
[2]; in vivo, po, 60 mg/kg/day
  AUC: 17100 ng·h/mL
  CL/F: 35.8 mL/min/kg
  fold increase in mean AUCall compared to Study Day 1: 3.68 fold
  Cmax: 296 ng/mL
[2]; in vivo, po, 60 mg/kg/day, AUC0-12
  AUC(0-t): 2170 ng·h/mL
[2]; in vivo, po, 60 mg/kg/day, AUC0-24
  AUC(0-t): 4380 ng·h/mL
[2]; in vivo, po, Tmax values over the dose range evaluated
  Tmax: 3.33 to 14 h
[2]; test article-treated animals
  gross or microscopic lesions at terminal sacrifice: No gross or microscopic lesions were observed
